What all share (test): NCI tumour cell line growth inhibition, 48 h
Assay [1] relates to MALME-3M melanoma.
The subject of assay [2] is SN12C renal.
For assay [3], the system named is HOP-62 NSCLC.
The test system of assay [4] is NCI-H226 lung.
Assay [5] relates to EKVX NSCLC.
The test system of assay [6] is SW-620 colon.
The subject of assay [7] is RXF 393 renal.
The subject of assay [8] is OVCAR-3 ovarian.
Assay [9] deals with DU-145 prostate.
Assay [10] concerns A498 renal.

Here are results for 15 molecules from PubChem BioAssay (NCI).

SMILES strings stand for the structures.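 Protocol summary: plate cells (96-well), add compound at 5 concentrations, incubate 48 h, interpolate endpoints linearly. The concentration for full growth arrest is given as TGI.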

For `N=C1/C(=C/c2ccc(F)cc2)C(=O)N=C2SC=NN12`, the TGI in [1], in [2], in assay [3], in assay [4], in [5] and in [6] was above 100 µM throughout. The TGI in [7], in assay [8] and in [9] was above 100 µM in each case.
For the molecule `c1nc(OCC2CCCCC2)c2[nH]cnc2n1`, the TGI in assay [1], in assay [2], in assay [3], in assay [4], in assay [5] and in assay [6] was above 100 µM each time. Also, the TGI in assay [7], in [8] and in assay [9] was above 100 µM throughout.
With `CO/N=C/c1cc(OC)c(OC)c(OC)c1`, the TGI in assay [1], in assay [2], in [3], in [4], in assay [5] and in assay [6] was above 100 µM each time. Also, the TGI in assay [8] and in assay [10] was above 100 µM throughout.
In the case of `OCC1OC(c2cccc3cc(O)c(O)cc23)CC1O` (stereo not drawn), the TGI in assay [2], in assay [3], in assay [4], in assay [5], in assay [6] and in assay [8] was above 100 µM in each case. In addition, the TGI in assay [10] and in assay [9] was above 100 µM each time.
For `CC(C)(C)[Si](OC1CC(n2cnc3c(N)ncnc32)OC1CO)(c1ccccc1)c1ccccc1` (stereo not drawn), the TGI in assay [1] was 45.9 µM; in [2], 43.3 µM; in assay [3] it was 45.3 µM; in assay [4], 27.1 µM; in assay [5], 41.7 µM; in [6], 34.1 µM. Further, the TGI amounted to 29.5 µM in assay [7], 33.9 µM in assay [8] and 32.9 µM in assay [10].
For `COc1ccc(C2C(Cl)C(=O)N2n2cnc3ccccc3c2=O)cc1` (stereo not drawn), the TGI in [1], in [2], in [3], in [4], in assay [5] and in assay [6] was above 100 µM each time. In addition, the TGI in assay [7] and in assay [8] was above 100 µM each time.
Consider `COc1ccc(N2C(=O)CC(C3CC(C(C)(C)C)CCC3=O)C2=O)cc1` (stereo not drawn), for which the TGI in assay [2], in assay [3], in assay [4], in assay [5], in [6] and in [7] was above 100 µM each time. The same molecule registered a TGI in [9] above 100 µM.
Turning to `C/C(=N\NC(=S)N1CCCCC1)c1nc2ncccc2[nH]1`, the TGI in assay [1] is above 100 µM; in assay [2], above 100 µM; in assay [3], above 100 µM; in assay [4] it was 26.7 µM; in assay [5] it was 98.2 µM; in [6], above 100 µM. In addition, the TGI is above 100 µM in assay [8], 65.5 µM in assay [10] and 86.3 µM in assay [9].
For `CCCCCCCCCC1(N=[N+]=[N-])C(=O)c2ccccc2N(C)C1=O` (stereo not drawn), the TGI in assay [1] was 70.2 µM; in assay [2], 57.8 µM; in assay [3], above 100 µM; in assay [6] it was above 100 µM; in assay [7], 55.3 µM; in [8] it was 56.4 µM. In addition, the results for the TGI in [10] and in assay [9] were 76.8 µM and above 100 µM, respectively.
For the molecule `COC(=O)c1ccc(C(=O)NC(Cc2ccc(Oc3cc(CC(NC(=O)c4ccccc4C(=O)OC)C(=O)OC)ccc3OC)cc2)C(=O)OC)cc1` (stereo not drawn), the TGI in [1], in assay [2], in [3], in assay [4], in assay [5] and in [6] was above 100 µM in each case. Moreover, the TGI in [8], in assay [10] and in assay [9] was above 100 µM throughout.
Turning to `OCCCCCCCCCCCOc1ccc(C2OCC3(CO2)COC(c2ccc(OCCCCCCCCCCCO)cc2)OC3)cc1` (stereo not drawn), the TGI in assay [1], in assay [2], in assay [3], in assay [4], in assay [5] and in assay [6] was above 50 µM throughout. For the same molecule, the TGI in assay [8], in [10] and in [9] was above 50 µM in each case.
`FC(F)(F)c1ccc(N=C/C=C(/Nc2ccc(C(F)(F)F)cc2)c2ccc(Cl)cc2)cc1`: the TGI in assay [1] was found to be 40.4 µM; in assay [2], 26.3 µM; in assay [3], 40.1 µM; in assay [4] it was 32.3 µM; in [5], 44.4 µM; in assay [6], 32.8 µM. The figures for the TGI in assay [7], in [8] and in [9] were 26.4 µM, 27.9 µM and 31.8 µM, respectively.
For the molecule `NC1CC(=O)c2c(Br)csc21` (stereo not drawn), the TGI is above 100 µM in assay [1]; above 100 µM in [2]; above 100 µM in [3]; above 100 µM in assay [5]; 77.7 µM in assay [6]; above 100 µM in assay [7]. In addition, the TGI in [8], in assay [10] and in assay [9] was above 100 µM throughout.
As to `COc1cc2cc3c4c(cc(OC)c(OC)c4c2cc1OC)CCN3C(=O)OCCN1CCNCC1`, the TGI in assay [1] came to 31 µM; in assay [2], 29.9 µM; in [3] it was 31.5 µM; in assay [4] it was 28.1 µM; in assay [5] it was 28.6 µM; in assay [6] it was 28.1 µM. For the same molecule, the results for the TGI in assay [7], in [8] and in [10] were 27.9 µM, 28.8 µM and 27.8 µM, respectively.
Turning to `CCc1cc2c(oc3cc4ccccc4cc32)c(=O)[nH]1`, the TGI in assay [1], in assay [2], in assay [4], in [5], in assay [6] and in assay [7] was above 10 µM each time. In addition, the TGI in assay [8] and in [9] was above 10 µM each time.
